How the values were obtained:
S. aureus Newman = test: fitness (endpoint OD595 vs no drug) (fraction); higher = more growth
Summary of the method: (§1)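 In 384-well plates at 37 °C, cultures began at OD595 0.01 in 30 µl, with 55 µl used for S. pneumoniae. OD595 readings every 30 min for 14 h were corrected by the first reading. Fitness divides the stationary-phase transition optical density by the robust mean of no-drug control wells. The result is capped at 1.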

B. subtilis 168 = test: as above
Summary of the method: as §1

S. pneumoniae D39V = test: as above
Summary of the method: as §1

S. aureus DSM 20231 [1] = test: Bliss interaction score (quartile over a dose matrix) (fitness difference); higher = more antagonism (negative = synergy); settings: main component drawn
Summary of the method: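 Fitness was defined as normalised growth: OD595 at the start of stationary phase divided by the plate's robust no-drug mean and capped at 1. Single-drug fitness was inferred from combination measurements. The Bliss score is observed fitness minus the product of the single-drug values, summarised by quartiles across technical, biological and donor/recipient replicates.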

S. aureus DSM 20231 [2] = test: fitness (endpoint OD595 vs no drug) (fraction); higher = more growth
Summary of the method: as §1
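Wherever Bliss interaction score (quartile over a dose matrix) is given: first quartile when negative (synergy) and third quartile when positive (antagonism).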
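Wherever fitness (endpoint OD595 vs no drug) is given: OD595 on entry to stationary phase over no-drug wells; at most 1.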

O=C(O)[C@H]1/C(=C/CO)O[C@@H]2CC(=O)N21 [Clavulanic acid] + O=C(O[C@@H]1Cc2c(O)cc(O)cc2O[C@@H]1c1cc(O)c(O)c(O)c1)c1cc(O)c(O)c(O)c1 [EGCG]
fitness, S. aureus Newman, one replicate
Settings	first compound 0.03125 µg/mL	first compound 0.0625 µg/mL	first compound 0.125 µg/mL
partner 12.5 µg/mL	0.846	0.892	0.824
partner 25 µg/mL	0.821	0.874	0.812
partner 50 µg/mL	0.75	0.733	0.73

fitness
Settings	partner 6.25 µg/mL	partner 12.5 µg/mL	partner 25 µg/mL	partner 50 µg/mL
B. subtilis 168, first compound 1.5 µg/mL	0.884	–	–	–
B. subtilis 168, first compound 3 µg/mL	0.835	–	–	–
B. subtilis 168, first compound 6 µg/mL	0.715	–	0.272	–
S. pneumoniae D39V, first compound 0.5 µg/mL	–	0.958	0.96	0.939
S. pneumoniae D39V, first compound 1 µg/mL	–	0.889	0.931	0.93
S. pneumoniae D39V, first compound 2 µg/mL	–	0.817	0.829	0.816

CNC(C)C1CCC(N)C(OC2C(N)CC(N)C(OC3OCC(C)(O)C(NC)C3O)C2O)O1 (stereo unspecified) [Gentamicin] + CC1=C(C(=O)O)N2C(=O)[C@@H](NC(=O)[C@H](N)c3ccccc3)[C@H]2SC1 [Cephalexin]
fitness, one replicate, main component drawn
Settings	partner 0.125 µg/mL	partner 0.25 µg/mL	partner 0.5 µg/mL	partner 1 µg/mL
B. subtilis 168, first compound 0.0625 µg/mL	–	–	–	0.986
B. subtilis 168, first compound 0.125 µg/mL	–	–	–	0.941
B. subtilis 168, first compound 0.25 µg/mL	–	–	–	0.418
S. aureus Newman, first compound 0.375 µg/mL	–	≥ 1	≥ 1	≥ 1
S. aureus Newman, first compound 0.75 µg/mL	–	≥ 1	≥ 1	≥ 1
S. aureus Newman, first compound 1.5 µg/mL	–	0.986	0.877	0.963
S. pneumoniae D39V, first compound 2 µg/mL	0.962	0.96	0.947	–
S. pneumoniae D39V, first compound 4 µg/mL	0.993	0.955	≥ 1	–
S. pneumoniae D39V, first compound 8 µg/mL	0.93	0.965	0.956	–

main component drawn
Settings	fitness
B. subtilis 168, first compound 0.0625 µg/mL, partner 0.125 µg/mL	0.852
B. subtilis 168, first compound 0.0625 µg/mL, partner 0.25 µg/mL	0.938
B. subtilis 168, first compound 0.0625 µg/mL, partner 0.5 µg/mL	0.882
B. subtilis 168, first compound 0.125 µg/mL, partner 0.125 µg/mL	0.0869
B. subtilis 168, first compound 0.25 µg/mL, partner 0.125 µg/mL	0.0552
B. subtilis 168, first compound 0.25 µg/mL, partner 0.25 µg/mL	0.0555
B. subtilis 168, first compound 0.25 µg/mL, partner 0.5 µg/mL	0.0535
S. aureus Newman, first compound 0.5 µg/mL, partner 0.25 µg/mL	0.968
S. aureus Newman, first compound 0.5 µg/mL, partner 0.5 µg/mL	0.964
S. aureus Newman, first compound 0.5 µg/mL, partner 1 µg/mL	0.922
S. aureus Newman, first compound 1 µg/mL, partner 0.25 µg/mL	≥ 1
S. aureus Newman, first compound 1 µg/mL, partner 0.5 µg/mL	0.986
S. aureus Newman, first compound 1 µg/mL, partner 1 µg/mL	≥ 1
S. aureus Newman, first compound 2 µg/mL, partner 0.25 µg/mL	0.993
S. aureus Newman, first compound 2 µg/mL, partner 0.5 µg/mL	≥ 1
S. aureus Newman, first compound 2 µg/mL, partner 1 µg/mL	≥ 1
S. pneumoniae D39V, first compound 2 µg/mL, partner 2 µg/mL	0.0158
S. pneumoniae D39V, first compound 2 µg/mL, partner 4 µg/mL	0.0234
S. pneumoniae D39V, first compound 4 µg/mL, partner 1 µg/mL	0.424
S. pneumoniae D39V, first compound 4 µg/mL, partner 2 µg/mL	0.0331
S. pneumoniae D39V, first compound 4 µg/mL, partner 4 µg/mL	0.026
S. pneumoniae D39V, first compound 8 µg/mL, partner 1 µg/mL	0.401
S. pneumoniae D39V, first compound 8 µg/mL, partner 2 µg/mL	0.0415
S. pneumoniae D39V, first compound 8 µg/mL, partner 4 µg/mL	0.0404

CNC(C)C1CCC(N)C(OC2C(N)CC(N)C(OC3OCC(C)(O)C(NC)C3O)C2O)O1 (stereo unspecified) [Gentamicin] + CC(C)Cc1ccc(C(C)C(=O)O)cc1 [Ibuprofen]
Settings	Bliss interaction score
S. aureus DSM 20231 [1]	-0.442

CNC(C)C1CCC(N)C(OC2C(N)CC(N)C(OC3OCC(C)(O)C(NC)C3O)C2O)O1 (stereo unspecified) [Gentamicin] + CCCSc1nc(N[C@@H]2C[C@H]2c2ccc(F)c(F)c2)c2nnn([C@@H]3C[C@H](OCCO)[C@@H](O)[C@H]3O)c2n1 [Ticagrelor]
Settings	Bliss interaction score
S. aureus DSM 20231 [1]	-0.576

CNC(C)C1CCC(N)C(OC2C(N)CC(N)C(OC3OCC(C)(O)C(NC)C3O)C2O)O1 (stereo unspecified) [Gentamicin] + CCCc1nc2c(C)cc(-c3nc4ccccc4n3C)cc2n1Cc1ccc(-c2ccccc2C(=O)O)cc1 [Telmisartan]
Settings	Bliss interaction score
S. aureus DSM 20231 [1]	0.241

CNC(C)C1CCC(N)C(OC2C(N)CC(N)C(OC3OCC(C)(O)C(NC)C3O)C2O)O1 (stereo unspecified) [Gentamicin] + CC[C@H](c1ccc(O)cc1)[C@@H](CC)c1ccc(O)cc1 [Hexestrol]
Settings	Bliss interaction score
S. aureus DSM 20231 [1]	-0.536

CNC(C)C1CCC(N)C(OC2C(N)CC(N)C(OC3OCC(C)(O)C(NC)C3O)C2O)O1 (stereo unspecified) [Gentamicin] + O=C(O)Cc1cc(I)c(Oc2ccc(O)c(I)c2)c(I)c1 [Tiratricol]
Settings	Bliss interaction score
S. aureus DSM 20231 [1]	0.264

Cc1cc(NS(=O)(=O)c2ccc(N)cc2)no1 [Sulfamethoxazol] + CN(N=O)C(=O)N[C@@H](C=O)[C@@H](O)[C@H](O)[C@H](O)CO [Streptozotocin]
fitness
Settings	partner 0.15 µg/mL	partner 0.3 µg/mL	partner 0.6 µg/mL	partner 1.2 µg/mL	partner 2.4 µg/mL	partner 4.8 µg/mL
B. subtilis 168, first compound 1 µg/mL	0.855	0.847	0.927	–	–	–
B. subtilis 168, first compound 2 µg/mL	0.85	0.889	0.889	–	–	–
S. aureus DSM 20231 [2], first compound 1 µg/mL	0.794	0.727	0.632	–	–	–
S. aureus DSM 20231 [2], first compound 2 µg/mL	0.861	0.735	0.689	–	–	–
S. aureus DSM 20231 [2], first compound 4 µg/mL	0.857	0.815	0.689	–	–	–
S. aureus Newman, first compound 1 µg/mL	0.891	0.754	0.605	–	–	–
S. aureus Newman, first compound 2 µg/mL	0.868	0.789	0.587	–	–	–
S. aureus Newman, first compound 4 µg/mL	0.88	0.798	0.62	–	–	–
S. pneumoniae D39V, first compound 1 µg/mL	–	–	–	0.939	0.94	0.935
S. pneumoniae D39V, first compound 2 µg/mL	–	–	–	0.944	0.942	0.953
S. pneumoniae D39V, first compound 4 µg/mL	–	–	–	0.911	0.899	0.917

fitness, one replicate
Settings	partner 0.15 µg/mL	partner 0.3 µg/mL	partner 0.6 µg/mL
B. subtilis 168, first compound 0.5 µg/mL	0.931	0.904	0.943
B. subtilis 168, first compound 4 µg/mL	≥ 1	≥ 1	0.956
S. aureus Newman, first compound 8 µg/mL	0.854	0.804	0.751

Cc1cc(NS(=O)(=O)c2ccc(N)cc2)no1 [Sulfamethoxazol] + CN[C@@H]1[C@H](O)[C@H](NC)[C@H]2O[C@@]3(O)C(=O)C[C@@H](C)O[C@H]3O[C@@H]2[C@H]1O [Spectinomycin]
fitness
Settings	first compound 1 µg/mL	first compound 2 µg/mL	first compound 4 µg/mL
B. subtilis 168, partner 2 µg/mL	0.926	0.853	0.941
B. subtilis 168, partner 4 µg/mL	0.92	0.861	0.959
B. subtilis 168, partner 8 µg/mL	0.96	0.891	0.891
S. aureus DSM 20231 [2], partner 4 µg/mL	0.897	0.896	0.994
S. aureus DSM 20231 [2], partner 8 µg/mL	0.822	0.861	0.957
S. aureus DSM 20231 [2], partner 16 µg/mL	0.763	0.812	0.849
S. aureus Newman, partner 4 µg/mL	0.972	0.964	0.983
S. aureus Newman, partner 8 µg/mL	0.986	0.985	0.967
S. aureus Newman, partner 16 µg/mL	0.877	0.927	0.925
S. pneumoniae D39V, partner 4 µg/mL	0.954	0.889	0.924
S. pneumoniae D39V, partner 8 µg/mL	0.935	0.899	0.922

one replicate
Settings	fitness
B. subtilis 168, first compound 0.5 µg/mL, partner 2 µg/mL	0.916
B. subtilis 168, first compound 0.5 µg/mL, partner 4 µg/mL	0.882
B. subtilis 168, first compound 0.5 µg/mL, partner 8 µg/mL	0.851
S. aureus DSM 20231 [2], first compound 1 µg/mL, partner 32 µg/mL	0.826
S. aureus DSM 20231 [2], first compound 1 µg/mL, partner 64 µg/mL	0.08
S. aureus DSM 20231 [2], first compound 2 µg/mL, partner 32 µg/mL	0.796
S. aureus DSM 20231 [2], first compound 2 µg/mL, partner 64 µg/mL	0.0783
S. aureus DSM 20231 [2], first compound 4 µg/mL, partner 32 µg/mL	0.802
S. aureus DSM 20231 [2], first compound 4 µg/mL, partner 64 µg/mL	0.0708
S. aureus Newman, first compound 1 µg/mL, partner 32 µg/mL	0.589
S. aureus Newman, first compound 1 µg/mL, partner 64 µg/mL	0.0829
S. aureus Newman, first compound 2 µg/mL, partner 32 µg/mL	0.577
S. aureus Newman, first compound 2 µg/mL, partner 64 µg/mL	0.0759
S. aureus Newman, first compound 4 µg/mL, partner 32 µg/mL	0.581
S. aureus Newman, first compound 4 µg/mL, partner 64 µg/mL	0.0529
S. aureus Newman, first compound 8 µg/mL, partner 4 µg/mL	≥ 1
S. aureus Newman, first compound 8 µg/mL, partner 8 µg/mL	0.959
S. aureus Newman, first compound 8 µg/mL, partner 16 µg/mL	0.905
S. pneumoniae D39V, first compound 1 µg/mL, partner 16 µg/mL	0.691
S. pneumoniae D39V, first compound 2 µg/mL, partner 16 µg/mL	0.634
S. pneumoniae D39V, first compound 4 µg/mL, partner 16 µg/mL	0.702

Cc1cc(NS(=O)(=O)c2ccc(N)cc2)no1 [Sulfamethoxazol] + CN[C@@H]1[C@H](O[C@H]2[C@H](O[C@H]3[C@H](O)[C@@H](O)[C@H](N=C(N)N)[C@@H](O)[C@@H]3N=C(N)N)O[C@@H](C)[C@]2(O)C=O)O[C@@H](CO)[C@H](O)[C@H]1O [Streptomycin]
fitness
Settings	first compound 1 µg/mL	first compound 2 µg/mL	first compound 4 µg/mL
B. subtilis 168, partner 2 µg/mL	0.903	0.9	0.888
B. subtilis 168, partner 4 µg/mL	–	–	0.153
B. subtilis 168, partner 8 µg/mL	0.045	0.0312	0.0185
S. aureus Newman, partner 1 µg/mL	0.98	0.939	0.956
S. aureus Newman, partner 2 µg/mL	0.968	0.999	0.93
S. pneumoniae D39V, partner 2 µg/mL	0.962	0.962	0.932
S. pneumoniae D39V, partner 4 µg/mL	0.932	0.932	0.944
S. pneumoniae D39V, partner 8 µg/mL	0.877	0.908	0.95

one replicate
Settings	fitness
B. subtilis 168, first compound 0.5 µg/mL, partner 2 µg/mL	≥ 1
B. subtilis 168, first compound 0.5 µg/mL, partner 4 µg/mL	≥ 1
B. subtilis 168, first compound 0.5 µg/mL, partner 8 µg/mL	0.0922
S. aureus Newman, first compound 2 µg/mL, partner 8 µg/mL	0.913
S. aureus Newman, first compound 4 µg/mL, partner 8 µg/mL	0.876
S. aureus Newman, first compound 8 µg/mL, partner 2 µg/mL	0.973
S. aureus Newman, first compound 8 µg/mL, partner 4 µg/mL	0.964
S. aureus Newman, first compound 8 µg/mL, partner 8 µg/mL	0.897
S. pneumoniae D39V, first compound 1 µg/mL, partner 16 µg/mL	0.763
S. pneumoniae D39V, first compound 2 µg/mL, partner 16 µg/mL	0.78
S. pneumoniae D39V, first compound 4 µg/mL, partner 16 µg/mL	0.79
